In this experiment the test system is GBM8 human glioblastoma cells. Description: GBM8 viability assay (Cell Titer Glo). Particulars: 72 h, luminescence. Type of experiment: cell-based. The procedure:
Cell culture medium was prepared from a NSA proliferation kit (Neurocult) and NeuroCult supplements (Stemcell Tech Cat. #05751) and treated with 20 μL of 10 μg/mL rh EGF, 10 μL of 10 μg/mL rh bFGF and 10 μL of 0.2% Heparin. In this medium, human glioblastoma cells were cultured in ultra-low attachment tissue culture flasks until 1×10^6 cells ml was achieved (GBM4 and GBM8 are distinct neurosphere cell cultures derived from these human patient tissues). GBM4 and GBM8 cells were dissociated and 10 mL of media containing 4000 human glioblastoma cells per 90 μL were transferred to an ultra-low binding 96-well plate and incubated at 37° C. overnight. On the following day, 10 μL of a 1% DMSO solution of test compound in assay medium was added to wells containing the cell suspension and the mixture incubated at 37° C. for 3 days. At this time, the plate was removed from the incubator and allowed to reach room temperature. After about 30 minutes, 50 μL of Cell Titer Glo solution was added to each well and the plate shaken for 1 minute at low speed. After 10 minutes luminescence was recorded using a Tecan Safire2 reader.
Reduction in luminescence compared to DMSO only control wells was used to determine the percentage inhibition of cell growth. IC50s were calculated using the % inhibition of luminescence for serial dilutions of compounds fitted to a 4-parameter fit within the Prism (San Diego) curve fitting program. Tables 1 (compounds 3-188) and 2 (compounds 190-212) show the GBM4 IC50 and GBM8 IC50 for compounds described herein.
Background: In ATP-based viability assays light output follows the ATP content of the culture.

The structures appear in SMILES notation.

By IC50 is commonly meant the concentration that inhibits the measured activity by half. The low end stands for inhibition by little substance, the high end for a need for much substance.

On to `CNCCCCNc1cc(C)nc(NC(=O)Nc2ccc3cnccc3c2)n1` [Compound 65, 1-(isoquinolin-6-yl)-3-(4-methyl-6-((4-(methylamino)butyl)amino)pyrimidin-2-yl)urea], for which the IC50 (Table 1, 3 days incubation) was below 500 nM.

On to `CCCCNc1cc(C)nc(NC(=O)Nc2ccc3cnccc3c2)n1` [Compound 56], for which the IC50 (Table 1, 3 days incubation) is below 500 nM.

For the setting “Table 1, 3 days incubation”, `CCNc1cc(C)nc(NC(=O)Nc2ccc(-c3ccccc3)cc2)n1` [Compound 126, 1-([1,1′-biphenyl]-4-yl)-3-(4-(ethylamino)-6-methylpyrimidin-2-yl)urea] registered a half-inhibitory concentration (IC50) below 500 nM.

In the case of `CC(=O)NCCCNc1cc(C)nc(NC(=O)Nc2ccc3ncccc3c2)n1` [Compound 109, N-(3-((6-methyl-2-(3-(quinolin-6-yl)ureido)pyrimidin-4-yl)amino)propyl)acetamide], the IC50 (Table 1, 3 days incubation) lay in the range of 500 to 5000 nM.

On to `Cc1cc(NCCC(=O)N(C)C)nc(NC(=O)Nc2ccc3ccccc3c2)n1` [Compound 42, N,N-dimethyl-3-((6-methyl-2-(3-(naphthalen-2-yl)ureido)pyrimidin-4-yl)amino)propanamide], for which the IC50 (Table 1, 3 days incubation) was in the range of 500 to 5000 nM.

In the case of `CONc1cc(C)nc(NC(=O)Nc2ccc(OC(F)(F)F)cc2)n1` [Compound 146, 1-(4-(methoxyamino)-6-methylpyrimidin-2-yl)-3-(4-(trifluoromethoxy)phenyl)urea], the half-maximal inhibitory concentration (IC50) (Table 1, 3 days incubation) lay within 500 to 5000 nM.

Turning to `Cc1cc(NCCCN(C)C)nc(NC(=O)Nc2ccc3ccncc3c2)n1` [Compound 114, 1-(4-((3-(dimethylamino)propyl)amino)-6-methylpyrimidin-2-yl)-3-(isoquinolin-7-yl)urea], the concentration for half-maximal inhibition (IC50) (Table 1, 3 days incubation) was below 500 nM.

Regarding `CNCCCNc1cc(C(C)C)nc(NC(=O)Nc2ccc(Cl)c(Cl)c2)n1` [Compound 184, 1-(3,4-dichlorophenyl)-3-(4-isopropyl-6-((3-(methyl-amino)propyl)amino)pyrimidin-2-yl)urea], the IC50 (Table 1, 3 days incubation) was 500 to 5000 nM.

Regarding `Cc1cc(NCCCCN)nc(NC(=O)Nc2ccc3ccccc3c2)n1` [Compound 10], the IC50 (Table 1, 3 days incubation) was below 500 nM.

For `CNCCCNc1cc(C)nc(NC(=O)Nc2ccc3ccccc3c2)n1` [Compound 31, 1-(4-methyl-6-((3-(methylamino)propyl)amino)pyrimidin-2-yl)-3-(naphthalen-2-yl)urea], the concentration for half-maximal inhibition (IC50) (Table 1, 3 days incubation) is below 500 nM.

For the setting “Table 1, 3 days incubation”, `Cc1cc(NCCCc2ncc[nH]2)nc(NC(=O)Nc2ccc3ccccc3c2)n1` [Compound 23, 1-(4-((3-(1H-imidazol-2-yl)propyl)amino)-6-methylpyrimidin-2-yl)-3-(naphthalen-2-yl)urea] registered an IC50 below 500 nM.

The compound `CC(C)c1cc(NO)nc(NC(=O)Nc2ccc(OC(F)(F)F)cc2)n1` [Compound 199, 1-(4-(hydroxyamino)-6-isopropylpyrimidin-2-yl)-3-(4-(trifluoromethoxy)phenyl)urea] gave an IC50 (Table 2, 3 days incubation) of 500 to 5000 nM.

Compound `Cc1cc(NCCNS(C)(=O)=O)nc(NC(=O)Nc2ccc3occc3c2)n1` [Compound 86, N-(2-((2-(3-(benzofuran-5-yl)ureido)-6-methylpyrimidin-4-yl)amino)ethyl)methanesulfonamide] gave an IC50 (Table 1, 3 days incubation) below 500 nM.

For the setting “Table 1, 3 days incubation”, `CC(=O)NCCCNc1cc(C)nc(NC(=O)Nc2ccc3ccccc3c2)n1` [Compound 34, N-(3-((6-methyl-2-(3-(naphthalen-2-yl)ureido)pyrimidin-4-yl)amino)propyl)acetamide] yielded an IC50 below 500 nM.

For the setting “Table 1, 3 days incubation”, `Cc1cc(NCCCN(C)C)nc(NC(=O)Nc2ccc(Oc3ccccc3)cc2)n1` [Compound 133, 1-(4-((3-(dimethylamino)propyl)amino)-6-methylpyrimidin-2-yl)-3-(4-phenoxyphenyl)urea] displayed an IC50 below 500 nM.

`Cc1cc(NCCN)nc(NC(=O)Nc2ccc3ccncc3c2)n1` [Compound 116, 1-(4-((2-aminoethyl)amino)-6-methylpyrimidin-2-yl)-3-(isoquinolin-7-yl)urea] gave an IC50 (Table 1, 3 days incubation) of 500 to 5000 nM.

`Cc1cc(NCC(O)CO)nc(NC(=O)Nc2ccc3ccccc3c2)n1` (stereo not shown) [Compound 18] showed an IC50 (Table 1, 3 days incubation) below 500 nM.

`Cc1cc(N)nc(NC(=O)Nc2ccc3ccccc3c2)n1` [Compound 47, 1-(4-amino-6-methylpyrimidin-2-yl)-3-(naphthalen-2-yl)urea]: the IC50 (Table 1, 3 days incubation) was below 500 nM.

For `CC(C)c1cc(NO)nc(NC(=O)Nc2ccc(Cl)c(Cl)c2)n1` [Compound 185, 1-(3,4-dichlorophenyl)-3-(4-(hydroxyamino)-6-isopropyl-pyrimidin-2-yl)urea], the half-inhibitory concentration (IC50) (Table 1, 3 days incubation) lay in the range of 500 to 5000 nM.

Regarding `Cc1cc(NCCN(C)C)nc(NC(=O)Nc2ccc3ccncc3c2)n1` [Compound 115, 1-(4-((2-(dimethylamino)ethyl)amino)-6-methylpyrimidin-2-yl)-3-(isoquinolin-7-yl)urea], the IC50 (Table 1, 3 days incubation) lay within 500 to 5000 nM.

For the setting “Table 1, 3 days incubation”, `Cc1cc(NCC(F)(F)CO)nc(NC(=O)Nc2ccc3ccccc3c2)n1` [Compound 27, 1-(4-((2,2-difluoro-3-hydroxypropyl)amino)-6-methylpyrimidin-2-yl)-3-(naphthalen-2-yl)urea] returned a half-inhibitory concentration (IC50) below 500 nM.

Compound `CC(=O)NCCCNc1cc(C)nc(NC(=O)Nc2cc3ccccc3cn2)n1` [Compound 92, N-(3-((2-(3-(isoquinolin-3-yl)ureido)-6-methylpyrimidin-4-yl)amino)propyl)acetamide] had a half-inhibitory concentration (IC50) (Table 1, 3 days incubation) of 500 to 5000 nM.

Turning to `Cc1cc(NCCCN(C)C)nc(NC(=O)Nc2ccc(OC(C)C)cc2)n1` [Compound 136, 1-(4-((3-(dimethylamino)propyl)amino)-6-methylpyrimidin-2-yl)-3-(4-isopropoxyphenyl)urea], the concentration for half-maximal inhibition (IC50) (Table 1, 3 days incubation) is below 500 nM.

`Cc1cc(NCCCN(C)C)nc(NC(=O)Nc2cc3ccccc3cn2)n1` [Compound 89, 1-(4-((3-(dimethylamino)propyl)amino)-6-methylpyrimidin-2-yl)-3-(isoquinolin-3-yl)urea] returned an IC50 (Table 1, 3 days incubation) of 5000 to 30000 nM.

Under “Table 2, 3 days incubation”, `CC(C)c1cc(N)nc(NC(=O)Nc2ccc(OC(F)(F)F)cc2)n1` [Compound 196, 1-(4-amino-6-isopropylpyrimidin-2-yl)-3-(4-(trifluoro-methoxy)phenyl)urea] displayed a half-inhibitory concentration (IC50) of 500 to 5000 nM.

The compound `Cc1cc(NCCCN(C)C)nc(NC(=O)Nc2ccc3ccccc3n2)n1` [Compound 96, 1-(4-((3-(dimethylamino)propyl)amino)-6-methylpyrimidin-2-yl)-3-(quinolin-2-yl)urea] showed an IC50 (Table 1, 3 days incubation) of 500 to 5000 nM.

The compound `Cc1cc(NCCO)nc(NC(=O)Nc2ccc(OC(F)(F)F)cc2)n1` [Compound 145, 1-(4-((2-hydroxyethyl)amino)-6-methylpyrimidin-2-yl)-3-(4-(trifluoromethoxy)phenyl)urea] came in with a concentration for half-maximal inhibition (IC50) (Table 1, 3 days incubation) below 500 nM.

Compound `Cc1cc(NCCC(=O)N(C)C)nc(NC(=O)Nc2ccc3cnccc3c2)n1` [Compound 76, 3-((2-(3-(isoquinolin-6-yl)ureido)-6-methylpyrimidin-4-yl)amino)-N,N-dimethylpropanamide] yielded a half-maximal inhibitory concentration (IC50) (Table 1, 3 days incubation) of 500 to 5000 nM.

For the compound `Cc1cc(NCCN(C)C)nc(NC(=O)Nc2ccc3ccccc3c2)n1` [Compound 6], the IC50 (Table 1, 3 days incubation) is below 500 nM.

With `CN(C)CCCNc1ccnc(NC(=O)Nc2ccc(OC(F)(F)F)cc2)n1` [Compound 163, 1-(4-((3-(dimethylamino)propyl)amino)pyrimidin-2-yl)-3-(4-(trifluoromethoxy)phenyl)urea], the IC50 (Table 1, 3 days incubation) lay in the range of 500 to 5000 nM.

On to `CNc1cc(C)nc(NC(=O)Nc2ccc(OC(F)(F)F)cc2)n1` [Compound 144, 1-(4-methyl-6-(methylamino)pyrimidin-2-yl)-3-(4-(trifluoromethoxy)phenyl)urea], for which the IC50 (Table 1, 3 days incubation) was below 500 nM.

For the origin of these results see patent US12145913B2, “Inhibition of Olig2 activity” (Curtana Pharmaceuticals, Inc., priority 2016, dated 2024).
